# Tested on: whole blood
# Assay: ROTEM whole blood coagulation with dialyzed Dade Innovin (recombinant tissue factor) 0.569 μg/mL + Ca 12 mM + CTI 20 μg/mL + PKSI-527 40 μM
# Format: cell-based
# Conditions: Ex26; for CT (clotting time): Innovin 0.569 μg/mL+Ca+CTI+PKSI-527, heparan sulfate 2 μg/mL
# Method: ROTEM was used to analyze blood coagulation.
# Blood was collected using a blood collection tube containing 3.2% sodium citrate manufactured by Terumo Corporation.
# Blood coagulation was analyzed in the case of having added 4% (final concentration 0.569 μg/mL) of Dade Innovin (recombinant tissue factor: Sysmex Corporation) having being diluted by 50 times after dialysis, calcium chloride (Ca; final concentration 12 mM), heparan sulfate (final concentration 0 or 2 μg/mL), CTI (final concentration 20 μg/mL), PKSI-527 (final concentration 40 μM) without and with a soluble thrombomodulin (rTM: final concentration 30 nM) further having been added, as well as with an APC inhibitory aptamer (HS02-44G; final concentration 1 μM) in addition to 30 nM of soluble thrombomodulin.
# Blood coagulation was analyzed in the case of having added 4% (final concentration 0.569 μg/mL) of 50-fold diluted Dade Innovin (recombinant tissue factor: Sysmex Corporation) after dialysis, calcium chloride (Ca; final concentration 12 mM), low molecular weight heparan (trade name FRAGMIN; Pfizer) (final concentration 0 or 0.2 U/mL), CTI (final concentration 20 μg/mL), and PKSI-527 (final concentration 40 μM) with and without a soluble thrombomodulin (rTM; final concentration 30 nM) further having been added, as well as with an APC inhibitory aptamer (HS02-44G; final concentration 1 μM) in addition to 30 nM soluble thrombomodulin.
# ROTEM was used to analyze coagulation.
# Blood coagulation was analyzed in the case of having added 4% (final concentration 0.569 μg/mL) of 50-fold diluted Dade Innovin (recombinant tissue factor: Sysmex Corporation) after dialysis, calcium chloride (Ca; final concentration 12 mM), ARIXTRA (final concentration 0 or […]), CTI (final concentration 20 μg/mL), and PKSI-527 (final concentration 40 μM), without and with thrombomodulin (rTM; final concentration 30 nM) further having been added, as well as with an APC inhibitory aptamer (HS02-44G; final concentration 1 μM) in addition to soluble thrombomodulin 30 nM.
substance,measurement,setting,value
Heparan sulfate,CT (clotting time),no rTM,410 s
same,CT (clotting time),rTM 30 nM,904 s
same,CT (clotting time),rTM 30 nM+APC inhibitory aptamer 1 μM,643 s
same,anticoagulation ability of the soluble thrombomodulin,"addition of heparan sulfate 2 μg/mL, rTM 30 nM",markedly enhanced
